Results on two compounds are retold here after PMC8760513, “Mechanistic details of the actinobacterial lyase-catalyzed degradation reaction of 2-hydroxyisobutyryl-CoA” (The Journal of Biological Chemistry, 2021).

In this assay the target is T1, AcHACL (Actinomycetospora chiangmaiensis, UniProt P0DUV9).
T1 construct: recombinant from E. coli Lemo21(DE3), vector pASG-IBA43, N-terminal His-tag and C-terminal Strep-tag; tag removal not mentioned; homotetramer (dimer of dimers); C-terminal lid residues 556-590
T1 sequence (P0DUV9 1-590): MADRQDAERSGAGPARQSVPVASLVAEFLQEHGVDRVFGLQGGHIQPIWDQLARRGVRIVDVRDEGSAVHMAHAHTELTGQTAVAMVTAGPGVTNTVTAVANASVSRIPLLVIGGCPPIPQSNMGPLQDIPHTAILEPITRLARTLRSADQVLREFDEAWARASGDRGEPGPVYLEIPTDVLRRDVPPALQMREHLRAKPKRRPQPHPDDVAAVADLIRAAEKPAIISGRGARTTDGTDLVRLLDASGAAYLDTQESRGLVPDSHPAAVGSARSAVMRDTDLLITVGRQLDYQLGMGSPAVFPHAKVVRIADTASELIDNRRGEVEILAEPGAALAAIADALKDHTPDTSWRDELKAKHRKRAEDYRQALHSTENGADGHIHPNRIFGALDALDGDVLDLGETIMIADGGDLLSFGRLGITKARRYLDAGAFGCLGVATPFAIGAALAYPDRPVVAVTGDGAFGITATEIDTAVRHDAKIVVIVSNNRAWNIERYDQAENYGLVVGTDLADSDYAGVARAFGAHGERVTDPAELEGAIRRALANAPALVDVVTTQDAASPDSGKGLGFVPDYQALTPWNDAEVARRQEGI
The assay can be described thus: X-ray crystal structure, […] Å. Type of assay: binding.

The structures appear in SMILES notation.

On to `CC(C)=O` [acetone], for which the “X-ray crystal structure, 1.64 Å” value (product-bound dimer, additional density near ThDP interpreted as acetone, hydrogen bond to E493) was “additional electron density close to the ThDP cofactor was interpreted as an acetone molecule”. Turning to `CC(C)(COP(=O)(O)OP(=O)(O)OC[C@H]1O[C@@H](n2cnc3c(N)ncnc32)[C@H](O)[C@@H]1OP(=O)(O)O)[C@@H](O)C(=O)NCCC(=O)NCCSC=O` [formyl-CoA], the “X-ray crystal structure, 1.64 Å” value (product-bound dimer formed from 2-HIB-CoA in the crystal, density not well defined beyond the pantoyl moiety) is “the products formyl-CoA and acetone are bound to the other dimer”.
